Source: PubChem BioAssay AID1963860 (Molecular Pharmacology Branch, DTP, NCI, 2024)

Test system: CN0375-F725-PDC KRAS spheroid viability
Test: Anticancer human tumor CN0375-F725-PDC patient-derived colon carcinoma cell line growth inhibition [KRAS2]
Settings: spheroids with HUVEC and MSC; for viability, T/C: stronger effect = lower value
In short: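 Combination screen of spheroid viability in tumor-cell co-cultures with endothelial (HUVEC) and mesenchymal stem cell stroma. Each agent was tested in half-log dilutions, topping at clinical Cmax or at 10 microM without a known Cmax.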

[1] = curve of first compound, second compound 0.1 µM
[2] = curve of first compound, second compound 0.316 µM
[3] = curve of first compound, second compound 1 µM
[4] = curve of first compound, second compound 3.16 µM
[5] = curve of first compound, second compound 10 µM
[6] = second compound 0.1 µM, first compound 0.0316 µM
[7] = second compound 0.1 µM, first compound 0.1 µM
[8] = second compound 0.1 µM, first compound 0.316 µM
[9] = second compound 0.1 µM, first compound 1 µM
[10] = second compound 0.1 µM, first compound 3.16 µM
[11] = second compound 0.1 µM, first compound 10 µM
[12] = second compound 0.316 µM, first compound 0.0316 µM
[13] = second compound 0.316 µM, first compound 0.1 µM
[14] = second compound 0.316 µM, first compound 0.316 µM
[15] = second compound 0.316 µM, first compound 1 µM
[16] = second compound 0.316 µM, first compound 3.16 µM
[17] = second compound 0.316 µM, first compound 10 µM
[18] = second compound 1 µM, first compound 0.0316 µM
[19] = second compound 1 µM, first compound 0.1 µM
[20] = second compound 1 µM, first compound 0.316 µM
[21] = second compound 1 µM, first compound 1 µM
[22] = second compound 1 µM, first compound 3.16 µM
[23] = second compound 1 µM, first compound 10 µM
[24] = second compound 3.16 µM, first compound 0.0316 µM
[25] = second compound 3.16 µM, first compound 0.1 µM
[26] = second compound 3.16 µM, first compound 0.316 µM
[27] = second compound 3.16 µM, first compound 1 µM
[28] = second compound 3.16 µM, first compound 3.16 µM
[29] = second compound 3.16 µM, first compound 10 µM
[30] = second compound 10 µM, first compound 0.0316 µM
[31] = second compound 10 µM, first compound 0.1 µM
[32] = second compound 10 µM, first compound 0.316 µM
[33] = second compound 10 µM, first compound 1 µM
[34] = second compound 10 µM, first compound 3.16 µM
[35] = second compound 10 µM, first compound 10 µM
[36] = curve of first compound, second compound 0.0316 µM
[37] = second compound 0.0316 µM, first compound 0.0316 µM
[38] = second compound 0.0316 µM, first compound 0.1 µM
[39] = second compound 0.0316 µM, first compound 0.316 µM
[40] = second compound 0.0316 µM, first compound 1 µM
[41] = second compound 0.0316 µM, first compound 3.16 µM
[42] = second compound 0.0316 µM, first compound 10 µM
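Further: spheroids exposed to agents for 7 days.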

Row | SMILES | IC50 [1] [µM] | IC50 [2] [µM] | IC50 [3] [µM] | IC50 [4] [µM] | viability, T/C [6] [%] | viability, T/C [7] [%] | viability, T/C [8] [%] | viability, T/C [9] [%] | viability, T/C [10] [%] | viability, T/C [12] [%] | viability, T/C [13] [%] | viability, T/C [14] [%] | viability, T/C [15] [%] | viability, T/C [16] [%] | viability, T/C [18] [%] | viability, T/C [19] [%] | viability, T/C [20] [%] | viability, T/C [21] [%] | viability, T/C [22] [%] | viability, T/C [24] [%] | also measured
1 | COc1cc(Nc2ncc3c(n2)-c2ccc(Cl)cc2C(c2c(F)cccc2OC)=NC3)ccc1C(=O)O + COc1cc2nc(C)nc(NC(C)c3cc(N)cc(C(F)(F)F)c3)c2cc1OC1CCOC1 | > 10 | > 10 | > 10 | > 10 | 95.9 | 93.2 | 88.8 | 88.2 | 87.3 | 97 | 97.6 | 90.5 | 87.8 | 83.1 | 91.7 | 95.6 | 89.8 | 85.1 | 83.9 | 84.8 | IC50 [5]: < 0.0316 µM; viability, T/C [11]: 71.8%; viability, T/C [17]: 71.8%; viability, T/C [23]: 69.4%; viability, T/C [25]: 88.3%; viability, T/C [26]: 72.7%; viability, T/C [27]: 79%; viability, T/C [28]: 75.9%; viability, T/C [29]: 64.6%; viability, T/C [30]: 27.6%; viability, T/C [31]: 15.6%; viability, T/C [32]: 13.9%; viability, T/C [33]: 15.7%; viability, T/C [34]: 15.5%; viability, T/C [35]: 7.94%
2 | CCN1CCN(Cc2ccc(Nc3ncc(F)c(-c4cc(F)c5nc(C)n(C(C)C)c5c4)n3)nc2)CC1 |  |  |  |  |  |  |  |  |  |  |  |  |  |  |  |  |  |  |  |  | viability, T/C (compound 0.00316 µM): 102% [middle of 5 runs]; viability, T/C (compound 0.01 µM): 95.6% [middle of 5 runs]; viability, T/C (compound 0.0316 µM): 91.2% [middle of 5 runs]; viability, T/C (compound 0.1 µM): 97.8% [middle of 5 runs]; viability, T/C (compound 0.316 µM): 107% [middle of 5 runs]; viability, T/C (compound 1 µM): 101% [middle of 5 runs]; IC50 (curve of compound): > 1 µM
3 | COC(=O)c1ccc2c(C(=Nc3ccc(N(C)C(=O)CN4CCN(C)CC4)cc3)c3ccccc3)c(O)[nH]c2c1 + C=CC(=O)N1CCN(c2nc(OCC3CCCN3C)nc3c2CCN(c2cccc4cccc(C)c24)C3)CC1CC#N | 2.8 | 2.34 | 1.48 | < 0.0316 | 104 | 98.8 | 92.6 | 89.4 | 45.1 | 99.5 | 100 | 93.2 | 90.8 | 35.5 | 93.8 | 91.3 | 85.2 | 68.7 | 15.4 | 26.5 | IC50 [36]: 2.97 µM; viability, T/C [37]: 102%; viability, T/C [38]: 95.3%; viability, T/C [39]: 91.1%; viability, T/C [40]: 91.5%; viability, T/C [41]: 47.6%; viability, T/C [42]: 0.22%; viability, T/C [11]: 0.36%; viability, T/C [17]: 0.16%; viability, T/C [23]: 0.41%; viability, T/C [25]: 20.2%; viability, T/C [26]: 21.8%; viability, T/C [27]: 5.53%; viability, T/C [28]: 1.94%; viability, T/C [29]: 0.67%
4 | CC(C)NCC(C(=O)N1CCN(c2ncnc3c2C(C)CC3O)CC1)c1ccc(Cl)cc1 (configuration not stated) + C=CC(=O)N1CCN(c2nc(=O)n(-c3c(C)ccnc3C(C)C)c3nc(-c4c(O)cccc4F)c(F)cc23)C(C)C1 | > 10 | > 10 | > 10 | > 10 | 108 | 106 | 91.4 | 88.9 | 87.8 | 102 | 105 | 92.4 | 89 | 89.6 | 103 | 110 | 98.8 | 86.3 | 84.4 | 106 | IC50 [5]: > 10 µM; viability, T/C [11]: 80.1%; viability, T/C [17]: 75.9%; viability, T/C [23]: 77%; viability, T/C [25]: 111%; viability, T/C [26]: 101%; viability, T/C [27]: 87.7%; viability, T/C [28]: 84.2%; viability, T/C [29]: 73%; viability, T/C [30]: 101%; viability, T/C [31]: 95.7%; viability, T/C [32]: 88.7%; viability, T/C [33]: 72%; viability, T/C [34]: 71.9%; viability, T/C [35]: 55.7%
5 | CC(=O)OC12COC1CC(O)C1(C)C(=O)C(O)C3=C(C)C(OC(=O)C(O)C(NC(=O)OC(C)(C)C)c4ccccc4)CC(O)(C(OC(=O)c4ccccc4)C21)C3(C)C (configuration not stated) + COc1cc2nc(C)nc(NC(C)c3cc(N)cc(C(F)(F)F)c3)c2cc1OC1CCOC1 | > 3.16 | > 3.16 | > 3.16 | > 3.16 | 96.2 | 87.8 | 84.4 | 80.5 | 72.7 | 91.8 | 83.6 | 80 | 74.9 | 69.5 | 101 | 87.8 | 82.7 | 80.4 | 71.4 | 70.6 | IC50 [5]: 1.08 µM; viability, T/C (second compound 0.1 µM, first compound 0.01 µM): 99.6%; viability, T/C (second compound 0.316 µM, first compound 0.01 µM): 91%; viability, T/C (second compound 1 µM, first compound 0.01 µM): 89.8%; viability, T/C (second compound 3.16 µM, first compound 0.01 µM): 77.7%; viability, T/C [25]: 75.1%; viability, T/C [26]: 63.4%; viability, T/C [27]: 71.1%; viability, T/C [28]: 63.6%; viability, T/C (second compound 10 µM, first compound 0.01 µM): 68.3%; viability, T/C [30]: 65.6%; viability, T/C [31]: 64.6%; viability, T/C [32]: 52.6%; viability, T/C [33]: 54.9%; viability, T/C [34]: 39.9%
6 | CCNC(=O)CC1N=C(c2ccc(Cl)cc2)c2cc(OC)ccc2-n2c(C)nnc21 (configuration not stated) + C=CC(=O)N1CCN(c2nc(OCC3CCCN3C)nc3c2CCN(c2cccc4cccc(C)c24)C3)CC1CC#N | > 10 | > 10 | 6.11 | < 0.0316 | 101 | 92.8 | 81.4 | 78.6 | 67.2 | 97.1 | 88.6 | 77.8 | 75.1 | 68.4 | 88.1 | 85.6 | 73.3 | 65.6 | 60.1 | 30.2 | IC50 [36]: > 10 µM; viability, T/C [37]: 97.8%; viability, T/C [38]: 96.6%; viability, T/C [39]: 83.2%; viability, T/C [40]: 83%; viability, T/C [41]: 69.3%; viability, T/C [42]: 54%; viability, T/C [11]: 53.2%; viability, T/C [17]: 53.8%; viability, T/C [23]: 43.4%; viability, T/C [25]: 28%; viability, T/C [26]: 15.5%; viability, T/C [27]: 1.05%; viability, T/C [28]: 13.8%; viability, T/C [29]: 6.65%
